Values after ≈ are worked out from the molar mass of the structure shown.
conditions: buffer; pH 7.4; 200.0 µM

Compound | solubility kinetic
C=CCNC(=O)c1ccc(N(Cc2ccccc2)S(C)(=O)=O)cc1 | > 51.7 µg/mL
CSc1ccccc1C(=O)C1CCCN(Cc2ccccn2)C1 (stereo unspecified) | 44.8 µg/mL (≈ 137 µM)
COc1ccc(CCN2C(=O)CSC2=S)cc1OC | 6.1 µg/mL (≈ 20.5 µM)
S=C(NC1CCCCC1)N1CCc2[nH]c3ccccc3c2C1 | 1.3 µg/mL (≈ 4.15 µM)
Cl.O=C(NC1CCN(Cc2ccccc2)CC1)c1cccc(S(=O)(=O)Nc2ccc(SC(F)F)cc2)c1 | 31.7 µg/mL
CC(NC(=S)Nc1ccccc1C(F)(F)F)C1CC2CCC1C2 (stereo unspecified) | 2.1 µg/mL (≈ 6.13 µM)
C=CCn1c(C)cc(C(=O)COC(=O)CCc2cc(OC)c(OC)c(OC)c2)c1C | 31.8 µg/mL (≈ 76.5 µM)
Cc1cc(C(=O)COC(=O)c2ccc(NC(=O)CC#N)cc2)c(C)n1-c1ccc(OC(F)F)cc1 | 1.7 µg/mL (≈ 3.53 µM)
O=c1cc(C(F)(F)F)nc(SC/C=C/c2ccccc2)[nH]1 | > 46.8 µg/mL
CC(NC(=O)COC(=O)c1cc(S(=O)(=O)N2CCOCC2)ccc1F)c1ccccc1 (stereo unspecified) | > 67.6 µg/mL
COc1ccc(CN2CCNCC2)c(OC)c1OC.Cl | 40.3 µg/mL
O=C(NCC(=O)N1CCCC1)c1ccc(Br)o1 | > 45.2 µg/mL
COc1ccc(N2CCCC2)c(NC(=O)COc2ccccc2Cl)c1 | 1 µg/mL (≈ 2.77 µM)
CCn1c(C)cc(C(=O)COC(=O)c2ccccc2[N+](=O)[O-])c1C | 15.3 µg/mL (≈ 46.3 µM)
C=CCn1c(O)c(C(C)=NCCc2c[nH]c3ccccc23)c(=O)[nH]c1=O | 33.5 µg/mL (≈ 95.1 µM)
Cc1ccc(NC(=S)N(CCN(C)C)Cc2cccs2)cc1 | 12.2 µg/mL (≈ 36.6 µM)
O=C(CN1CCOCC1)Nc1c(Cl)cc(Cl)cc1Cl | > 48.5 µg/mL
CC(C)(C)C(=O)Nc1c(Cl)cccc1OC(F)(F)F | 34.2 µg/mL (≈ 116 µM)
O=S(=O)(c1c(Cl)sc(Cl)c1Br)N1CCCC1 | 4.4 µg/mL (≈ 12.1 µM)
COc1ccc(CCNC(=O)c2csc3c2CCCC3)cc1 | 2.1 µg/mL (≈ 6.66 µM)
CCC(C(=O)OCC(=O)N1C(C)CCCC1C)c1ccccc1 (stereo unspecified) | 45.1 µg/mL (≈ 142 µM)
COCCCNCC(O)C(F)(F)F (stereo unspecified) | 24.4 µg/mL (≈ 121 µM)

Compound | solubility kinetic
Cc1ccc(NC(=O)COc2cccc3c2OC(C)(C)C3)c(O)c1 | 6.8 µg/mL (≈ 20.8 µM)
Cc1cccc(NC(=S)NCC(C)CSc2ccc(Cl)cc2)c1 (stereo unspecified) | < 0.4 µg/mL
O=C(c1ccco1)N1CCN(S(=O)(=O)c2cccc([N+](=O)[O-])c2)CC1 | > 54.8 µg/mL
COc1cc(OC)cc(C(=O)O/N=C(\N)c2ccccn2)c1 | 40.6 µg/mL (≈ 135 µM)
O=C(Nc1cccc(Cl)c1)c1ccc2c(c1)OCCO2 | 6.3 µg/mL (≈ 21.7 µM)
CC(C)(ONC(=O)Nc1ccccc1Cl)C(=O)O | > 40.9 µg/mL
CC(=O)N(CCN(C)C)c1nc2cc3c(cc2s1)OCCO3.Cl | 47.6 µg/mL
Cc1ccnc(N2C(=O)c3ccc([N+](=O)[O-])cc3C2=O)c1 | > 42.5 µg/mL
COc1cccc(Nc2c(Nc3cccc(OC)c3)c(=O)c2=O)c1 | < 0.3 µg/mL
Cc1ccc(NC(=O)Cc2ccsc2)cc1S(=O)(=O)N1CCOCC1 | > 57.1 µg/mL
CC(Sc1ncnc2sc(-c3ccccc3)cc12)C(N)=O (stereo unspecified) | 0.8 µg/mL (≈ 2.54 µM)
C/C=C/n1ccnc1CC(O)(c1ccccc1)c1ccc(C)cc1 (stereo unspecified) | 3.3 µg/mL (≈ 10.4 µM)
CCCC(=O)N1CC(=O)Nc2ccc(C)cc2C1c1ccccc1 (stereo unspecified) | > 48.4 µg/mL
O=C(COc1ccc(Cl)cc1)NCCCNC(=O)c1cnccn1 | > 52.3 µg/mL
O=C(NCC1CC1)Nc1ccc(Cl)cc1 | 18.9 µg/mL (≈ 84.1 µM)
COc1ccc(NC(=O)Cn2cc(C#N)c3ccccc32)cc1 | < 0.2 µg/mL
CCS(=O)(=O)N1CCN=C1SCc1ccc(F)cc1 | 39.9 µg/mL (≈ 132 µM)
O=C(NCc1ccco1)c1cccc(Br)c1 | 39 µg/mL (≈ 139 µM)
O=C(C(c1ccccc1)c1ccccc1)N1CC[C@@]2(O)CCCC[C@H]2C1 | > 52.4 µg/mL
CN1CCN(CC/C=C2/c3ccccc3Sc3ccc(S(=O)(=O)N(C)C)cc32)CC1 | > 66.5 µg/mL
CN(Cc1c(F)cccc1Cl)S(=O)(=O)c1cccs1 | < 0.7 µg/mL
CSCC(=O)Nc1ccc(F)c(Cl)c1 | > 35.1 µg/mL

Compound | solubility kinetic
COc1cccc(-c2noc(-c3ccc(Br)o3)n2)c1 | 0.5 µg/mL (≈ 1.56 µM)
CCC(=O)NC1CC2CCCC(C1)N2Cc1ccc(C)cc1 (stereo unspecified) | > 45.1 µg/mL
CCc1cn(C2CC(O)C(CO)O2)c(=O)[nH]c1=O (stereo unspecified) | > 38.4 µg/mL
COc1ccc(Cl)cc1NC(=O)Nc1ccccc1SC | < 0.3 µg/mL
CCOc1ccccc1NC(=O)CCCNC(=O)c1ccc(Cl)cc1 | 50.4 µg/mL (≈ 140 µM)
Cc1noc(C)c1COc1cccc(C(=O)NC(C)(C)C)c1 | > 45.4 µg/mL
COc1ccc(C)cc1N(CC(=O)N1CCOCC1)S(C)(=O)=O | > 51.4 µg/mL
O=C(Nc1ccc(OC(F)(F)F)cc1)c1ccc2nccnc2c1 | 11.4 µg/mL (≈ 34.2 µM)
COCCNC(=S)N1CCC(Cc2ccccc2)CC1 | > 43.9 µg/mL
CSC1=C(C#N)C(=O)NC(c2ccc(Cl)cc2)S1 (stereo unspecified) | 11.9 µg/mL (≈ 40.1 µM)
CC1(C)CCC(=O)N(c2ccc(OC(F)(F)F)cc2)C1=O | > 45.2 µg/mL
COC(=O)c1ccc(C(=O)OC)c(NC(=O)c2cccnc2)c1 | 2.3 µg/mL (≈ 7.32 µM)
COC(=O)c1c(C)oc(C)c1S(=O)(=O)Nc1ccc(C(C)C)cc1 | 7.2 µg/mL (≈ 20.5 µM)
O=C(Oc1c(-c2ccccc2)c(=O)n2c3c(cccc13)CC2)c1ccc(Cl)cc1 | < 0.9 µg/mL
O=C(C1CCCCC1)N1CCC(O)(c2ccc(Cl)cc2)CC1 | > 48.3 µg/mL
CC(C)C1N(C(N)=S)N=CC1(C)C (stereo unspecified) | > 29.9 µg/mL
Cl.c1cncc(CNC2CCCC2)c1 | > 37.4 µg/mL
CCc1ccc(NC(=O)NC2CCCCCCC2)cc1 | < 0.3 µg/mL
O=C(/C=C/c1ccc(Cl)cc1)NCCCN1CCOCC1 | > 46.3 µg/mL
CC(Nc1cccc(C(=O)NC2CC2)c1)c1nnc(-c2ccccc2)o1 (stereo unspecified) | > 52.3 µg/mL
Cc1cc(C)c(NC(=O)C2=COCCO2)c(C)c1 | > 37.1 µg/mL
Cc1ccnc(NC(=O)c2oc3ccccc3c2C)c1 | 3.6 µg/mL (≈ 13.5 µM)

Compound | solubility kinetic
Cc1cccc2c(N=O)c(O)n(CCc3ccccc3)c12 | 0.4 µg/mL (≈ 1.43 µM)
Cc1cccc(C(=O)NCCNC(=O)c2ccco2)c1 | 34.5 µg/mL (≈ 127 µM)
COc1ccc(CC(=O)NCCCSc2ccccc2)cc1OC | 45.9 µg/mL (≈ 133 µM)
CC1CCCCC1NC(=O)CNC(=O)c1ccco1 (stereo unspecified) | 37.2 µg/mL (≈ 141 µM)
O=C(N/N=C/c1ccccc1Br)C1CC1 | > 40.1 µg/mL
CNCc1c(OCc2ccc(F)cc2)ccc2ccccc12.Cl | > 49.8 µg/mL
Cn1c(SCc2ccccc2C#N)nnc1-c1ccncc1 | > 46.1 µg/mL
CCc1nc2cccnc2n1-c1ccc(CC(=O)O)cc1 | > 42.2 µg/mL
COc1ccc(C(=O)NCC2OCCc3ccccc32)cc1OC (stereo unspecified) | 11.8 µg/mL (≈ 36 µM)
Cc1ncc([N+](=O)[O-])n1CC(=O)Nc1ccc(F)cc1F | 34 µg/mL (≈ 115 µM)
Cc1c(/C=N/O)sc2ccccc12 | 10.8 µg/mL (≈ 56.5 µM)
COc1ccc(-n2c(C)cc(=O)[nH]c2=O)cc1 | > 34.8 µg/mL
CCc1ccc(Nc2ccc3nonc3c2[N+](=O)[O-])cc1 | < 0.2 µg/mL
Cc1sc2ncnc(SCC(=O)Nc3cccc(S(N)(=O)=O)c3)c2c1C | 5.3 µg/mL (≈ 13 µM)
Cc1cccc(NC(=O)C2CCN(S(C)(=O)=O)CC2)c1C | > 46.6 µg/mL
CCOc1ccccc1NC(=O)CCNC(=O)c1ccco1 | 42.6 µg/mL (≈ 141 µM)
CCOC(=O)C(=O)c1c(-c2ccc(C)cc2)nc2ccccn12 | > 46.3 µg/mL
CN(C)CCOC(=O)NCC12CC3CC(CC(C3)C1)C2.Cl | > 47.5 µg/mL
Cc1csc(=O)n1CCC(=O)NCc1ccc(F)cc1 | > 44.2 µg/mL
Cc1nc2ccccc2n1C(C)c1ccccc1 (stereo unspecified) | > 35.4 µg/mL
